ChEMBL document CHEMBL1134772, “Synthesis and evaluation of hydroxylated polyamine analogues as antiproliferatives” (J Med Chem, 2001)

Legend:
[1] = biological target: T1, Ornithine decarboxylase (Mus musculus) (UniProt P00860); experiment: Percent of ornithine decarboxylase enzyme activity in L1210 cells after 4 hr of treatment with 1 uM of dose; type: cell-based
T1 sequence (whole entry): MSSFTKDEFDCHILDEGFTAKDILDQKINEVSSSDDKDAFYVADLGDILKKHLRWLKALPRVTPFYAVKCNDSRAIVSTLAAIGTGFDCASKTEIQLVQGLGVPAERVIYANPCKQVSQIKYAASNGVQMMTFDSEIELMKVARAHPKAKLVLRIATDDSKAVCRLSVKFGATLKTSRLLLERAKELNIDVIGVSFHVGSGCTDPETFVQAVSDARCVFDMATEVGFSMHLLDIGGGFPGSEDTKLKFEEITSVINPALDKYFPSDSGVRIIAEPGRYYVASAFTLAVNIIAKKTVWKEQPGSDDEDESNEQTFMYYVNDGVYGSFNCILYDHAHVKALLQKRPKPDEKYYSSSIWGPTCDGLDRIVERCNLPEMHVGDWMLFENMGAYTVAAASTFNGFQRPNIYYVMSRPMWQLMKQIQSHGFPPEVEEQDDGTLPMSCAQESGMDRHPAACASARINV

L1210 [2] = experiment: Effect of compound on the level of spermine in polyamine pools of L1210 cells after 48 hr of treatment with 100 uM of dose; type: functional, Mus musculus
L1210 [3] = experiment: Effect of compound on the level of spermidine in polyamine pools of L1210 cells after 48 hr of treatment with 100 uM of dose; type: functional, Mus musculus
L1210 [4] = experiment: Amount of compound present per 10e6 L1210 cells after 48 hr of treatment with 10 uM of dose; type: functional, cell-based; details: Mus musculus
L1210 [5] = experiment: Effect of compound on the level of spermidine in polyamine pools of L1210 cells after 48 hr of treatment with 10 uM of dose; type: functional, Mus musculus
L1210 [6] = experiment: Inhibition of transport of [3H]spermidine in L1210 cells; type: functional, cell-based, Mus musculus
L1210 [7] = experiment: Effect of compound on the level of putrescine in polyamine pools of L1210 cells after 48 hr of treatment with 100 uM of dose; type: functional, Mus musculus
[8] = Number of CD-1 mice died in a 6-day course after administration of 200 mg/kg dose of compound; 10/12; type: functional, Mus musculus
L1210 [9] = experiment: Effect of compound on the level of putrescine in polyamine pools of L1210 cells after 48 hr of treatment with 10 uM of dose; type: functional, Mus musculus
[10] = Number of CD-1 mice died after administration of 325 mg/kg dose of compound; 5/10; type: functional, Mus musculus
[11] = biological target: T2, Spermidine/spermine N(1)-acetyltransferase (SAT) (Mus musculus) (UniProt Q6P8J2+P48026); experiment: Percent of Spermidine/spermine-N1- acetyltransferase enzyme activity in L1210 cells after 48 hr of treatment with 10 uM of dose; type: cell-based
T2 sequence (P48026 whole entry, looked up): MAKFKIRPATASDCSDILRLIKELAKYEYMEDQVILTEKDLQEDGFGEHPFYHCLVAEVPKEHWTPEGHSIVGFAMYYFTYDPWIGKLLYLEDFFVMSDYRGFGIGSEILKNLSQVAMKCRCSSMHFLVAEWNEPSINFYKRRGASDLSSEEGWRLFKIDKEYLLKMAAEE
T2 sequence (Q6P8J2 whole entry, looked up): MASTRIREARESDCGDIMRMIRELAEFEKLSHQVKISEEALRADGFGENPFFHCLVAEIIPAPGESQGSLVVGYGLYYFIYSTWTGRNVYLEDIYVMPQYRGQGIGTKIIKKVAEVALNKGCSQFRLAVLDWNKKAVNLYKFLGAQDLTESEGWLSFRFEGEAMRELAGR

L1210 [12] = experiment: Amount of compound present per 10e6 L1210 cells after 48 hr of treatment with 100 uM of dose; type: functional, cell-based; details: Mus musculus
L1210 [13] = experiment: Effect of compound on the level of spermine in polyamine pools of L1210 cells after 48 hr of treatment with 10 uM of dose; type: functional, Mus musculus
L1210 [14] = experiment: Percent of S-adenosyl-methionine decarboxylase enzyme activity in L1210 cells after 6 hr of treatment with 1 uM of dose; type: cell-based
[15] = Number of CD-1 mice died in a 5-day course after administration of 100 mg/kg dose of compound; 0/5; type: functional, Mus musculus
L1210 [16] = experiment: Amount of compound present per 10e6 L1210 cells after 48 hr of treatment with 20 uM of dose; type: functional, cell-based; details: Mus musculus
[17] = Number of CD-1 mice died after administration of 100 mg/kg dose of compound; 1/5; type: functional, Mus musculus
[18] = Number of CD-1 mice died after administration of 200 mg/kg dose of compound; 5/5; type: functional, Mus musculus
L1210 [19] = experiment: Effect of compound on the level of spermine in polyamine pools of L1210 cells after 48 hr of treatment with 20 uM of dose; type: functional, Mus musculus
L1210 [20] = experiment: Effect of compound on the level of spermidine in polyamine pools of L1210 cells after 48 hr of treatment with 20 uM of dose; type: functional, Mus musculus
[21] = Number of CD-1 mice died in a 5-day course after administration of 75 mg/kg dose of compound; 0/5; type: functional, Mus musculus
L1210 [22] = experiment: Effect of compound on the level of putrescine in polyamine pools of L1210 cells after 48 hr of treatment with 20 uM of dose; type: functional, Mus musculus
[23] = Number of CD-1 mice died in a 5-day course after administration of 50 mg/kg dose of compound; 0/7; type: functional, Mus musculus
[24] = Number of CD-1 mice died in a 5-day course after administration of 25 mg/kg dose of compound; 0/7; type: functional, Mus musculus
L1210 [25] = experiment: Inhibitory concentration of compound against the growth of the L1210 cell line at 96 hr; type: functional, cell-based; details: Mus musculus, L1210, 96 h
L1210 [26] = experiment: Inhibitory concentration of compound against the growth of the L1210 cell line at 48 hr; type: functional, cell-based; details: Mus musculus, L1210, 48 h
[27] = Number of CD-1 mice died in a 5-day course after administration of 10 mg/kg dose of compound; 0/7; type: functional, Mus musculus
L1210 [28] = experiment: Amount of compound present per 10e6 L1210 cells after 48 hr of treatment with 4 uM of it; type: functional, cell-based; details: Mus musculus
[29] = Number of CD-1 mice died in a 5-day course after administration of 200 mg/kg dose of compound; 0/5; type: functional, Mus musculus
[30] = Number of CD-1 mice died after administration of 200 mg/kg dose of compound; 0/5; type: functional, Mus musculus
L1210 [31] = experiment: Effect of compound on the level of putrescine in polyamine pools of L1210 cells after 48 hr of treatment with 4 uM compound dose; type: functional, Mus musculus
L1210 [32] = experiment: Effect of compound on the level of spermine in polyamine pools of L1210 cells after 48 hr of treatment with 4 uM compound dose; type: functional, Mus musculus
L1210 [33] = experiment: Percent of S-adenosyl-methionine decarboxylase enzyme activity in L1210 cells after 6 hr of treatment with 1 uM dose of compound; type: cell-based
L1210 [34] = experiment: Inhibition of transport of [3H]-spermidine by L1210 cells; type: functional, cell-based, Mus musculus
L1210 [35] = experiment: Amount of compound present per 10e6 L1210 cells after 48 hr of treatment with 20 uM of it; type: functional, cell-based; details: Mus musculus
L1210 [36] = experiment: Effect of compound on the level of spermidine in polyamine pools of L1210 cells after 48 hr of treatment with 20 uM compound dose; type: functional, Mus musculus
[37] = Number of CD-1 mice died after administration of 400 mg/kg dose of compound; 0/5; type: functional, Mus musculus
L1210 [38] = experiment: Effect of compound on the level of putrescine in polyamine pools of L1210 cells after 48 hr of treatment with 20 uM compound dose; type: functional, Mus musculus
[39] = biological target: T1, Ornithine decarboxylase (Mus musculus); experiment: Percent of ornithine decarboxylase enzyme activity in L1210 cells after 4 hr of treatment with 1 uM dose of compound; type: cell-based
[40] = biological target: T2, Spermidine/spermine N(1)-acetyltransferase (SAT) (Mus musculus); experiment: Percent of Spermidine/spermine-N1- acetyltransferase enzyme activity in L1210 cells after 48 hr of treatment with 10 uM dose of compound; type: cell-based
L1210 [41] = experiment: Effect of compound on the level of spermine in polyamine pools of L1210 cells after 48 hr of treatment with 20 uM compound dose; type: functional, Mus musculus
[42] = Number of CD-1 mice died in a 5-day course after administration of 300 mg/kg dose of compound; 0/5; type: functional, Mus musculus
L1210 [43] = experiment: Effect of compound on the level of spermidine in polyamine pools of L1210 cells after 48 hr of treatment with 4 uM compound dose; type: functional, Mus musculus
[44] = Number of CD-1 mice died after administration of 100 mg/kg dose of compound; 0/5; type: functional, Mus musculus

CCNC[C@H](O)CNCCCNC[C@@H](O)CNCC
Control [1]: 61%

CCNCCCNCCCNCCCNCC [BIS(ETHYL)NORSPERMINE]
Control (L1210 [2]): 30%
Control (L1210 [3]): 6%
Concentration (L1210 [4]): 1.59 nM
Control (L1210 [5]): 14%
Ki (L1210 [6]): 7 µM
Control (L1210 [7]): 0%
No. of deaths/mice injected [8]: 10
Control (L1210 [9]): 30%
No. of deaths/mice injected [10]: 5
Control [1]: 7%
Control [11]: 3880%
Concentration (L1210 [12]): 2.44 nM
Control (L1210 [13]): 31%
Control (L1210 [14]): 42%

CCNCCCNCCCNCCCNCC1CC1
No. of deaths/mice injected [15]: 0
Control (L1210 [2]): 56%
Concentration (L1210 [16]): 2.17 nM
Control (L1210 [3]): 16%
No. of deaths/mice injected [17]: 1
No. of deaths/mice injected [18]: 5
Ki (L1210 [6]): 13 µM
Control (L1210 [7]): 13%
Control (L1210 [19]): 66%
Control (L1210 [20]): 25%
No. of deaths/mice injected [21]: 0
Control [1]: 26%
Control (L1210 [22]): 22%
No. of deaths/mice injected [23]: 0
No. of deaths/mice injected [24]: 0
Control [11]: 3260%
IC50 (L1210 [25]): 0.55 µM
Concentration (L1210 [12]): 2.59 nM
IC50 (L1210 [26]): 16 µM
Control (L1210 [14]): 48%
No. of deaths/mice injected [27]: 0

CCNC[C@@H](O)CNCCCNC[C@H](O)CNCC
Control [1]: 35%

CCNC[C@H](O)CNCCCNC[C@@H](O)CNCC1CC1
Amount (nmol/10^6 cells) (L1210 [28]): 1.94
No. of deaths/mice injected [15]: 0
No. of deaths/mice injected [29]: 0
No. of deaths/mice injected [30]: 0
Control (L1210 [31]): 43%
Control (L1210 [32]): 119%
Control (L1210 [33]): 59%
Ki (L1210 [34]): 40 µM
Amount (nmol/10^6 cells) (L1210 [35]): 3.05
Control (L1210 [36]): 32%
No. of deaths/mice injected [37]: 0
Control (L1210 [38]): 20%
Control [39]: 37%
Control [40]: 2500%
Control (L1210 [41]): 123%
No. of deaths/mice injected [42]: 0
Control (L1210 [43]): 48%
No. of deaths/mice injected [44]: 0
IC50 (L1210 [25]): 0.97 µM
IC50 (L1210 [26]): 4.5 µM
